Patent EP0091755A1, “Penicillin derivatives, a process for their preparation and compositions containing them” (BEECHAM GROUP PLC, priority 1982, dated 1983)
Read-outs that look alike come from different tables or passages of the source.

Legend:
Assay type in all cases: cell-based
Ps aeruginosa 10662 = assay: Antibacterial activity (MIC) against Ps aeruginosa 10662
Staph. aureus Oxford = assay: Antibacterial activity (MIC) against Staph. aureus Oxford; conditions: Staphylococcus aureus
Klebsiella aerogenes A = assay: Antibacterial activity (MIC) against Klebsiella aerogenes A
P mirabilis C977 = assay: Antibacterial activity (MIC) against P mirabilis C977
E Coli JT 425 = assay: Antibacterial activity (MIC) against E Coli JT 425
[1] = Ps aeruginosa 10662, example, read-out: Antibacterial activity (MIC)
[2] = Staph. aureus Oxford, example, read-out: Antibacterial activity (MIC)
[3] = Klebsiella aerogenes A, example, read-out: Antibacterial activity (MIC)
[4] = P mirabilis C977, example, read-out: Antibacterial activity (MIC)
[5] = Escherichia coli, E. Coli JT 425, table, read-out: Antibacterial activities (MIC)
[6] = Pseudomonas aeruginosa, Ps. Aeruginosa 10662, table, read-out: Antibacterial activities (MIC)
[7] = Staph Aureus Oxford, table, read-out: Antibacterial activities (MIC)
[8] = Klebsiella Aerogenes A, table, read-out: Antibacterial activities (MIC)
[9] = Proteus mirabilis, P. Mirabilis C977, table, read-out: Antibacterial activities (MIC)

CO[C@@]1(NC(=O)[C@H](NC(=O)Nc2cnc(Nc3ccc(S(N)(=O)=O)cc3)nc2O)c2ccccc2)C(=O)N2[C@@H](C(=O)O)C(C)(C)S[C@@H]21 [Example 1, Sodium 6,β-(D-2-[3-[2-(4-aminosulphonylphenylamino)-4-hydroxypyrimidin-5-yl]ureido]-2-phenylacetamido] -6,a-methoxypenicillanate]
MIC (Ps aeruginosa 10662; [1]): 50 µg/mL | MIC (Staph. aureus Oxford; [2]): 10 µg/mL | MIC (Klebsiella aerogenes A; [3]): 2.5 µg/mL | MIC (P mirabilis C977; [4]): 2.5 µg/mL

CO[C@@]1(NC(=O)[C@H](NC(=O)Nc2cnc(Nc3ccc(S(N)(=O)=O)cc3)nc2O)c2ccc(O)cc2)C(=O)N2[C@@H](C(=O)O)C(C)(C)S[C@@H]21 [Example 3, Sodium 6,β-[D-2-[3-[2-(4-aminosulphonylphenylamino)-4-hydroxypyrimidin-5-yl]ureido]-2-(4-hydroxyphenyl)acetamido]-6,a-methoxypenicillanate]
MIC (E Coli JT 425; E Coli JT 425, example, read-out: Antibacterial activity (MIC)): 2.5 µg/mL | MIC (Ps aeruginosa 10662; [1]): 25 µg/mL | MIC (Staph. aureus Oxford; [2]): 50 µg/mL | MIC (Klebsiella aerogenes A; [3]): 0.2 µg/mL | MIC (P mirabilis C977; [4]): 1.25 µg/mL

CO[C@@]1(NC(=O)[C@H](NC(=O)Nc2cnc(Nc3ccc(S(N)(=O)=O)cc3)nc2O)c2cccs2)C(=O)N2[C@@H](C(=O)O)C(C)(C)S[C@@H]21 [Example 4, Sodium 6β-[D-2-[3-[2-(4-aminosulphonylphenylamino)-4-hydroxypyrimidin-5-yl]ureido]-2-(thien-2-yl)acetamido]-6,a-methoxypenicillanate.]
MIC (E Coli JT 425; [5]): 1 µg/mL | MIC (Ps aeruginosa 10662; [6]): 10 µg/mL | MIC (Staph. aureus Oxford; [7]): 10 µg/mL | MIC (Klebsiella aerogenes A; [8]): 0.2 µg/mL | MIC (P mirabilis C977; [9]): 1 µg/mL

CO[C@@]1(NC(=O)[C@@H](NC(=O)Nc2cnc(Nc3ccc(S(N)(=O)=O)cc3)nc2O)c2cccs2)C(=O)N2[C@@H](C(=O)O)C(C)(C)S[C@@H]21 [Example 5, Sodium 6,β-[L-2-[3-[2-(4 aminosulphonylphenylamino)-4-hydroxy-pyrimidin-5-yl]ureido]-2-thien-2-y-)acetamido]-6α methoxypenicillanate]
MIC (E Coli JT 425; [5]): 2.5 µg/mL | MIC (Ps aeruginosa 10662; [6]): 50 µg/mL | MIC (Staph. aureus Oxford; [7]): 25 µg/mL | MIC (Klebsiella aerogenes A; [8]): 1 µg/mL | MIC (P mirabilis C977; [9]): 2.5 µg/mL

CO[C@@]1(NC(=O)C(NC(=O)Nc2cnc(Nc3ccc(S(N)(=O)=O)cc3)nc2O)c2ccco2)C(=O)N2[C@@H](C(=O)O)C(C)(C)S[C@@H]21 (stereo partly drawn) [Example 6, Sodium 6,β-[D,L-2-[3-[2-(4-aminosulphonylphenylamino), -4-hydroxypyrimidin-5-yl]-ureido]-2-(furan-2-yl)acetamido]-6,a-methoxy penicillanate]
MIC (E Coli JT 425; [5]): 8 µg/mL | MIC (Ps aeruginosa 10662; [6]): 32 µg/mL | MIC (Staph. aureus Oxford; [7]): 16 µg/mL | MIC (Klebsiella aerogenes A; [8]): 0.12 µg/mL | MIC (P mirabilis C977; [9]): 2 µg/mL

CO[C@@]1(NC(=O)C(NC(=O)Nc2cnc(Nc3ccc(S(N)(=O)=O)cc3)nc2O)c2ccccc2F)C(=O)N2[C@@H](C(=O)O)C(C)(C)S[C@@H]21 (stereo partly drawn) [Example 7, Sodium 6,B-[D,L-2-[3-[2-(4-aminosulphonylphenylamino) -4-hydroxypyrimidin-5-yl]ureido]-2-(2-fluorophenyl)acetamido]-6,a-methoxypenicillanate]
MIC (E Coli JT 425; [5]): 1 µg/mL | MIC (Ps aeruginosa 10662; [6]): 16 µg/mL | MIC (Staph. aureus Oxford; [7]): 16 µg/mL | MIC (Klebsiella aerogenes A; [8]): 0.25 µg/mL | MIC (P mirabilis C977; [9]): 1 µg/mL

CO[C@@]1(NC(=O)C(NC(=O)Nc2cnc(Nc3ccc(S(N)(=O)=O)cc3)nc2O)c2ccc(F)cc2)C(=O)N2[C@@H](C(=O)O)C(C)(C)S[C@@H]21 (stereo partly drawn) [Example 8, Sodium 6,B-[D,L-2-[3-[2-(4-aminosulphonylphenylamino)-4-hydroxy-pyrimidin-5-yl]ureido]-2-(4-fluorophenyl)-acetamido]-6,a-methoxypenicillanic.]
MIC (E Coli JT 425; [5]): 16 µg/mL | MIC (Ps aeruginosa 10662; [6]): 128 µg/mL | MIC (Staph. aureus Oxford; [7]): 64 µg/mL | MIC (Klebsiella aerogenes A; [8]): 8 µg/mL | MIC (P mirabilis C977; [9]): 8 µg/mL

CO[C@@]1(NC(=O)C(NC(=O)Nc2cnc(Nc3ccc(S(N)(=O)=O)cc3)nc2O)c2ccc(OC(C)=O)c(OC(C)=O)c2)C(=O)N2[C@@H](C(=O)O)C(C)(C)S[C@@H]21 (stereo partly drawn) [Example 9, Sodium 6,B-[D,L-2-[3-[2-(4-aminosulphonylphenylamino)-4-hydroxypyrimidin-5-yl]ureido]-2-(3,4-diacetoxyphenyl)acetamido]-6,a-methoxypenicillanate]
MIC (E Coli JT 425; [5]): 1 µg/mL | MIC (Ps aeruginosa 10662; [6]): 1 µg/mL | MIC (Staph. aureus Oxford; [7]): < 128 µg/mL | MIC (Klebsiella aerogenes A; [8]): < 0.06 µg/mL | MIC (P mirabilis C977; [9]): 2 µg/mL
